# Experimental data reported in patent publication US20160030364A1, “Therapeutic Compositions and Uses Thereof” (MANUKA HEALTH NEW ZEALAND LIMITED, priority 2013, published 2016).
# Several values for one entry are separate records, joined by “and”; a condition that tells them apart may be missing. Identical values can stand only once.
# Key:
# Assay type in all cases: cell-based
# [1] = tested on: human oesophageal squamous cell carcinoma cell line (KYSE-30); experiment: MTT anti-proliferative assay, KYSE-30 (Examples 3-13)
# [2] = tested on: human colorectal adenocarcinoma cells (DLD-1); experiment: MTT anti-proliferative assay, DLD-1 (Examples 3-12); details: 200 μg/ml; for % inhibition / % stim. / Mean OD (570 nm): 48 hours
# Protocol: (§1) 5-phenylpenta-2,4-dienoic acid was assessed for its ability to modulate the viability and proliferation of human colorectal adenocarcinoma cells (DLD-1); human colon cancer cell line (HCT-116); human gastric carcinoma cell line (NCI-N87); and human oesophageal squamous cell carcinoma cell line (KYSE-30) as assessed by the MTT assay. The positive control, 5-fluorouracil (5-FU) was included at three concentrations; in addition to an unsupplemented cell control as a negative control in the study. The 5-phenylpenta-2,4-dienoic acid was a genuine standard with chemical structure confirmed by NMR and MS.
# (§2) The four human gastrointestinal carcinoma cell lines were revived from cryostorage and cultured in the presence of the test and reference samples. An MTT assay was then performed on the cultures to determine the effect of the samples on the cell viability and proliferation.
# (§3) The test sample 5-phenylpenta-2,4-dienoic acid, and all other test samples in Examples 4-12 (except tectochrysln) were Initially dissolved in pure ethanol to a concentration of around 13.35 mg/ml. Tectochrysin was initially dissolved in triethylene glycol mono-methyl ether to the same concentration. Working solutions were then prepared from the stock solutions by dilution to 15% ethanol/Hanks Balanced Salt Solution (ETOH)/HBSS to a concentration of 2 mg/mL solids. In the assay the final concentration of the samples was 200 μg/ml with a final EtOH concentration of 1.5%. Final concentrations of test compounds and propolis prepared as above are as noted in Example 3.
# (§4) • 1. Human colorectal adenocarcinoma cells (ATCC CCI-221, DLD-1)(ATCC, Bethesda, Md., USA) • 2. Human gastric carcinoma cells (ATCC CRL-5822, NCI-N87)(ATCC, Bethesda, Md., USA) • 3. Human oesophageal squamous cell carcinoma (ECACC, KYSE-30)(Sigma Aldrich, Auckland, NZ) • 4. Human colon carcinoma cells (ECACC HCT-116)(Sigma Aldrich, Auckland, NZ) • 5. Penicillin-streptomycin solution: 10000 units/ml penicillin, 10 mg/ml streptomycin in 0.9% NaCl (Sigma Cat #P-0781). Stored at −20° C. • 6. For DLD-1 cells: DMEM culture medium (Invitrogen Cat #12100-046). Stored at 4° C. • 7. For NCI-N87 cells: RPMI-1640 medium modified to contain 2 mM L-glutamine, 10 mM HEPES, 1 mM sodium pyruvate, 4500 mg/L glucose, and 1500 mg/L sodium bicarbonate (Sigma R6504). Stored at 4° C. • 8. For KYSE-410 cells: RPMI-1640 medium modified to contain 2 mM L-glutamine (Sigma R6504). Stored at 4° C. • 9. For HCT-116 cells: McCoy's 5A medium modified to contain 2 mM L-glutamine (Sigma M48792). Stored at 4° C. • 10. Trypsin-EDTA solution: 0.25% Trypsin/EDTA, Invitrogen Cat#15400054 (×10 in stock). • 11. Phosphate buffered saline (PBS) (Prepared by TBL). • 12. Hanks Balanced Salt Solution (HBSS). (GIBCO Cat No. 14185-052). Stored at 4° C. • 13. Foetal Bovine Serum (GIBCO Cat #10091-148). Stored at −20° C. • 14. MTT Reagent: 100 mg/vial, (SIGMA Cat. No. M-2128) dissolved in PBS at 10 mg/ml and stored at −20° C. 5 mg/ml MTT solution will be prepared in PBS and stored at 4° C. as working solution. • 15. MTT lysis buffer: 10% sodium dodecyl sulphate (SDS)/45% Dimethyl Formamide (20 g SDS will be dissolved in 100 ml of double-distilled water (DDW), and 90 ml of Dimethyl Formamide will be added to the SDS solution). The pH will be adjusted to 4.7 by glacial acetic acid, and DDW added up to a final volume of 200 ml. • 16. 5-Fluorouracil (5-FU), (Sigma Cat. No. F-6627). Three working solutions will be prepared at 19.5 μg/ml. 6.5 μg/ml and 1.95 μg/ml dissolved in 15% Ethanol/HBSS. Final concentrations will be 1.95 μg/ml (15 μM), 0.65 μg/ml (5 μM) and 0.195 μg/ml (1.5 μM).
# (§5) The medium for the propagation of the each of the cells lines is given above. Each medium was prepared following the ATCC/ECACC instructions and supplemented with penicillin-streptomycin solution (10 ml per litre). FBS (at 10%) was added just before use.
# • 1. […]
# [3] = tested on: human colon cancer cell line (HCT-116); experiment: MTT anti-proliferative assay, HCT-116 (Examples 3-12); details: 200 μg/ml; for % inhibition / % stim. / Mean OD (570 nm): 48 hours
# Protocol: as §1, §2, §3, §4, §5
# • 1. […]
# [4] = tested on: human oesophageal squamous cell carcinoma cell line (KYSE-30); experiment: MTT anti-proliferative assay, KYSE-30 (Examples 3-13); details: Examples 3-12, 200 μg/ml, 48 hours
# Protocol: as §1, §2, §3, §4, §5
# • 1. […]
# [5] = tested on: human gastric carcinoma cell line (NCI-N87); experiment: MTT anti-proliferative assay, NCI-N87 (Examples 3-12); details: 200 μg/ml; for % inhibition / % stim. / Mean OD (570 nm): 48 hours
# Protocol: as §1, §2, §3, §4, §5
# • 1. […]
# [6] = listed as 1,1-dimethylallylcaffeic acid
Compound,% inhibition [2],% stim. [2] [%],Mean OD (570 nm) [2],% inhibition [3],% stim. [3] [%],Mean OD (570 nm) [3],% inhibition [4],% stim. [4] [%],Mean OD (570 nm) [4],% inhibition [5],% stim. [5] [%],Mean OD (570 nm) [5],other results
"1,1-dimethylallyl caffeic acid",93.24%,0,0.0279,96.73%,0,0.0166,97.8%,0,0.0133,86.74%,0,0.0586,"% inhibition ([1]; Example 13, 100 μg/ml): 88.63%; Mean OD (570 nm) ([1]; Example 13, 100 μg/ml): 0.0381; % inhibition [2, 6]: 93.2%; % inhibition [3, 6]: 86.7%; % inhibition [5, 6]: 86.7%"
"C=C(C)CCOC(=O)C=Cc1ccc(O)c(O)c1 [3-methyl-3-butenyl caffeate, 3-methyl-3-butenyl caffeic acid]",91.6% and 91.63%,0,0.0345,96.0% and 96.03%,0,0.0202,96.3% and 96.31%,0,0.0222,84.5% and 84.54%,0,0.0683,"% inhibition ([1]; Example 13, 10 μg/ml): 39.3% and 39.33%; Mean OD (570 nm) ([1]; Example 13, 10 μg/ml): 0.2034"
COc1cc(/C=C/C(=O)OCc2ccccc2)ccc1O [benzyl ferulate],86.02%,0,0.0576,95.92%,0,0.0207,98.62%,0,0.0083,86.96%,0,0.0576,"Mean OD (570 nm) ([1]; Example 13, 50 μg/ml): 0.0398; inhibition at 50 µg/mL ([1]; Homo sapiens, KYSE-30, Example 13, 50 μg/ml): 88.1%; inhibition at 200 µg/mL ([2]; Homo sapiens, DLD-1, 48 h): 86%; inhibition at 200 µg/mL ([3]; Homo sapiens, HCT-116, 48 h): 95.9%; inhibition at 200 µg/mL ([4]; Homo sapiens, KYSE-30, 48 h): 98.6%; inhibition at 200 µg/mL ([5]; Homo sapiens, NCI-N87, 48 h): 87%"
